Experiment: xn = mol fraction of the nth substance listed
Settings: 101 kPa

C=CC[n+]1ccn(C)c1.[Cl-] + O
viscosity [mPa·s]
Settings	298.15 K	303.15 K	313.15 K	323.15 K	328.15 K	333.15 K	343.15 K	353.15 K	363.15 K	373.15 K
x2 = 0.045	1884	1137	–	232	167	124	73	46.2	31.2	22.21
x2 = 0.091	1416	891	392	196	144	–	64.9	41.8	–	20.53
x2 = 0.126	1090	691	–	164	123	92	56.3	–	–	–
x2 = 0.152	887	580	270	147	108	84	51.7	34.3	24	17.6
x2 = 0.193	–	459	221	121	91	71	45	30.4	21.6	–
x2 = 0.267	–	293	151	86	67.1	53.1	35	–	17.7	–
x2 = 0.335	259	–	101	–	48.6	39.3	26.8	19.2	14.26	10.98

CC(=O)[O-].CC[n+]1ccn(C)c1 + O
viscosity [mPa·s]
Settings	298.15 K	303.15 K	313.15 K	323.15 K	333.15 K	343.15 K	353.15 K	363.15 K	373.15 K
x2 = 0.072	124	92	55.4	35.4	24.3	17.63	13.21	–	8.19
x2 = 0.102	119	89	53.6	34.5	23.8	17.23	–	–	8.07
x2 = 0.132	112	–	51.1	–	22.9	16.73	–	–	7.86
x2 = 0.188	100	76	–	30.6	–	15.69	–	9.32	–
x2 = 0.266	–	66	41.8	27.7	–	14.44	11	8.67	6.98
x2 = 0.355	75	58	36.9	24.8	17.7	–	–	8	6.47
